Measurements from patent US20050101595A1, “N-containing cycloalkyl-substituted amino-thiazole derivatives and pharmaceutical compositions for inhibiting cell proliferation and methods for their use” (PFIZER INC., priority 2003, published 2005).
pIC50, pKi: −log10 of the molar value. Counter-ions that a name gives are not always drawn. Like-named read-outs stand apart in the source and are kept apart here.

How the values were obtained:
[1] = target: CDK2/Cyclin A (Homo sapiens, UniProt P24941); test: Inhibition of CDK2/Cyclin A Retinoblastoma Kinase Activity; type: biochemical; conditions: for pKi: apparent Ki, CDK2/proteolyzed cyclin A, Rb fragment substrate, 25 μM ATP
Summary of the method: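 Radiometric filter-binding readout of phosphate transfer to an Rb substrate fragment by purified CDK2/truncated cyclin A at 10 or 19 nM. Run at pH 7.4 with 25 μM ATP, 30 °C, 60–75 min, linear rates; background without enzyme subtracted, Ki from competitive-inhibition models.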

[2] = target: human CDK4 and genetically truncated (1-264) cyclin D3 (Homo sapiens, UniProt P11802); test: Inhibition of CDK4/Cyclin D Retinoblastoma Kinase Activity; type: biochemical; conditions: for pKi: apparent Ki, CDK4/truncated cyclin D3, Rb fragment substrate, 25 μM ATP
human CDK4 and genetically truncated (1-264) cyclin D3, sequence (P11802 whole entry, the tested form may be a part): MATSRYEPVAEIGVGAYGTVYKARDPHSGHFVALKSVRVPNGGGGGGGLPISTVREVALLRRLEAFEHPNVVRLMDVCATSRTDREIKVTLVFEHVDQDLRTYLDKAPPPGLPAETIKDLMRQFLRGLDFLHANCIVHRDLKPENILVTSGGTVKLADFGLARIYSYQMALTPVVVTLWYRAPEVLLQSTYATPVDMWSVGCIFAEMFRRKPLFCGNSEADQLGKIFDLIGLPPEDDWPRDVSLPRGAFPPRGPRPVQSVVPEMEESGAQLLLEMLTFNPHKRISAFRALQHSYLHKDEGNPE
human CDK4 and genetically truncated (1-264) cyclin D3, sequence (P30281 1-264 partner): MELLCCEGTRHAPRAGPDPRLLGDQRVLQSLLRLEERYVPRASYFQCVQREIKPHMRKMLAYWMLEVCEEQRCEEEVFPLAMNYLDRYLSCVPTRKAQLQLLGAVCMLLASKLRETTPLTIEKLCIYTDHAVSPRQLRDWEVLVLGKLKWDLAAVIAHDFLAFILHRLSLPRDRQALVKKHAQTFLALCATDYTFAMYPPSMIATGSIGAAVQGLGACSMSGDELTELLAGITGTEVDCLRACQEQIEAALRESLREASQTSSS
Summary of the method: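 Apparent Ki values come from competitive or competitive tight-binding inhibition fits of background-corrected 32P/33P incorporation into His-tagged Rb fragment (386-928), captured on nitrocellulose. Reaction: 5 nM insect-cell-expressed human CDK4 with cyclin D3 (1-264), 25 μM ATP, pH 7.4 HEPES, 2% DMSO, 30° C., 20 min, extended to 60 min for tight-binding inhibitors.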

[3] = tested on: HCT-116 cell line; test: Inhibition of cell growth, tetrazolium salt (MTT) assay; type: cell-based; conditions: for pIC50: Homo sapiens, HCT-116, 120 h, MTT, three to five days, read-out: HCT-116 IC50; for HCT-116 % Inhibition at 0.25 μM: 0.25 μM compound
Summary of the method: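 McCoy's 5A cultures; 4 h pre-incubation; compound dilutions in 0.5% v/v DMSO; 3–5 d, 37° C, 5% CO2; MTT 0.2 mg/mL final, 4 h; formazan dissolved in DMSO, A540; vs 0.5% DMSO vehicle.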

[4] = 0.1 μM compound, HCT-116, Table 3

Cc1cncn1-c1ccc(S(=O)(=O)N2CCC(Nc3nc(N)c(C(=O)c4c(F)cccc4F)s3)CC2)cn1 [Example G28, 1-(4-Amino-2-{1-[6-(5-methyl-imidazol-1-yl)-pyridine-3-sulfonyl]-piperidin-4-ylamino}-thiazol-5-yl)-1-(2,6-difluoro-phenyl)-methanone Hydrochloride]
pKi [1]: 9.40 | pKi [2]: 9.07 | pIC50 ([3]; first HCT-116 column (c4)): 6.80 | pIC50 ([3]; second HCT-116 column (c5)): 6.48

CNc1ccc(S(=O)(=O)N2CCC(Nc3nc(N)c(C(=O)c4c(F)cccc4F)s3)CC2)cn1 [Example G7, 1-{4-Amino-2-[1-(6-methylamino-pyridine-3-sulfonyl)-piperidin-4-ylamino]-thiazol-5-yl}-1-(2,6-difluoro-phenyl)-methanone]
pKi [1]: 9.12 | pKi [2]: 8.80 | pIC50 ([3]; first HCT-116 column (c4)): 6.74 | pIC50 ([3]; second HCT-116 column (c5)): 6.19

CC(C)S(=O)(=O)N1CCC(Nc2nc(N)c(C(=O)c3c(F)cccc3F)s2)CC1 [Example P24]
CDK2 % Inhibition at 0.03 μM ([1]; 0.03 μM compound, Table 3): 5% | CDK4 % Inhibition at 0.03 μM ([2]; 0.03 μM compound, Table 3): 24% | HCT-116 % Inhibition at 0.1 μM [3, 4]: 26% | HCT-116 % Inhibition at 0.25 μM ([3]; HCT-116, Table 3): 36%

Nc1nc(NC2CCN(S(=O)(=O)CCN3CCCC3c3ccccc3)CC2)sc1C(=O)c1c(F)cccc1F (stereo not shown) [Example K29, Trifluoroacetic Acid Salt]
pKi [1]: 8.43 | pKi [2]: 8.80 | pIC50 ([3]; first HCT-116 column (c4)): 6.80 | pIC50 ([3]; second HCT-116 column (c5)): 6.29

Cc1ccc(NC(=O)N2CCC(Nc3nc(N)c(C(=O)c4c(F)cccc4F)s3)CC2)c(C)c1 [Example O41]
CDK2 % Inhibition At 0.03 μM ([1]; 0.03 μM compound, Table 2): 33% | CDK4 % Inhibition at 0.03 μM ([2]; 0.03 μM compound, Table 2): 1% | HCT-116 % Inhibition at 0.25 μM ([3]; HCT-116, Table 2): 26%

Nc1nc(NC2CCN(C(=O)c3ccc(I)cc3)CC2)sc1C(=O)c1c(F)cccc1F [Example Q53]
CDK2 % Inhibition at 0.03 μM ([1]; 0.03 μM compound, Table 4): 60% | CDK4 % Inhibition at 0.03 μM ([2]; 0.03 μM compound, Table 4): 83% | HCT-116 % Inhibition at 0.1 μM ([3]; 0.1 μM compound, HCT-116, Table 4): 0% | HCT-116 % Inhibition at 0.25 μM ([3]; HCT-116, Table 4): 22%

CN1CCCC(Oc2ccc(S(=O)(=O)N3CCC(Nc4nc(N)c(C(=O)c5c(F)cccc5F)s4)CC3)cn2)C1 (stereo not shown) [Example H16, 1-(4-Amino-2-{1-[6-(1-methyl-piperidin-3RS-yloxy)-pyridin-3-sulfonyl]-piperidin-4-ylamino}-thiazol-5-yl)-1-(2,6-difluoro-phenyl)-methanone Hydrochloride]
pKi [1]: 9.32 | pKi [2]: 9.55 | pIC50 ([3]; first HCT-116 column (c4)): 7.24 | pIC50 ([3]; second HCT-116 column (c5)): 6.30

Nc1nc(NC2CCN(S(=O)(=O)c3cnc(OCCN4CCOCC4)nc3)CC2)sc1C(=O)c1c(F)cccc1F [Example H22, (4-Amino-2-{1-[2-(2-morpholin4-yl-ethoxy)-pyrimidine-5-sulfonyl]-piperidin-4-ylamino}-thiazol-5-yl)-(2,6-difluoro-phenyl)-methanone Trifluoroacetic Acid Salt]
pKi [1]: 8.92 | pKi [2]: 8.96 | pIC50 ([3]; first HCT-116 column (c4)): 6.92 | pIC50 ([3]; second HCT-116 column (c5)): 6.52

Nc1nc(NC2CCN(C(=O)C(c3ccccc3)c3ccccc3)CC2)sc1C(=O)c1c(F)cccc1F [Example R1]
CDK2 % Inhibition at 0.03 μM ([1]; at 0.03 μM): −34% | CDK4 % Inhibition at 0.03 μM ([2]; at 0.03 μM): 3% | HCT-116 % Inhibition at 0.1 μM ([3]; HCT-116 cells, at 0.1 μM): 0% | HCT-116 5 Inhibition at 0.25 μM ([3]; HCT-116 cells): 32

Nc1nc(NC2CCN(C(=O)CCC3CCCCC3)CC2)sc1C(=O)c1c(F)cccc1F [Example R101]
CDK2 % Inhibition at 0.03 μM ([1]; at 0.03 μM): 15% | CDK4 % Inhibition at 0.03 μM ([2]; at 0.03 μM): 39% | HCT-116 % Inhibition at 0.1 μM ([3]; HCT-116 cells, at 0.1 μM): 7% | HCT-116 5 Inhibition at 0.25 μM ([3]; HCT-116 cells): 45

Nc1nc(NC2CCN(S(=O)(=O)c3ccc(F)cc3Cl)CC2)sc1C(=O)c1c(F)cccc1F [Example P55]
CDK2 % Inhibition at 0.03 μM ([1]; 0.03 μM compound, Table 3): 43% | CDK4 % Inhibition at 0.03 μM ([2]; 0.03 μM compound, Table 3): 52% | HCT-116 % Inhibition at 0.1 μM [3, 4]: 20% | HCT-116 % Inhibition at 0.25 μM ([3]; HCT-116, Table 3): 25%
